The target in assay [1] is T1, dopaminergic receptors D2 (Oryctolagus cuniculus, UniProt G1T1Q0).
T1 construct: The central ear artery was cut into 3 mm-rings; from tissue; host or cells: central ear artery rings of male New Zealand rabbits
As to the kind of experiment: D2 activity in the rabbit ear artery (REA), electrically stimulated isolated artery rings. The note with it: rabbit central ear artery rings, electrically stimulated (10 Hz); cumulative administration; agonistic activity at peak of effect; read-out: D2 activity (REA) expressed as pD2, i.e. -logEC50 (converted). The method, then:
Evaluation of the D2 activity in the rabbit ear artery (REA)
Artery rings were prepared following the method described by Steinsland et al., Science, 1978, 443, 199, modified as follows.
Male New Zealand rabbits (weighing 2.5-3 Kg) were sacrificed by a pentobarbital intravenous injection and bled. The central ear artery was cut into 3 mm-rings.
The samples were placed into a 25 ml-bath containing a Krebs solution (mM/l): sodium chloride 118, potassium chloride 4.7, calcium chloride 2.5, magnesium sulphate 1.2, sodium hydrocarbonate 25, potassium biphosphate 1.2, glucose 11.1, balanced with oxygen 95%/carbon dioxide 5% and maintained at 35±1° C. The Krebs solution was added with EDTA (10 μM) to prevent the cathecolamine oxidation, with desipramine (0,1 μM) and corticosterone (30 μM) to stop the neuronal and extraneuronal cathecolamine re-uptake.
The samples were electrically stimulated (10 Hz, 1 msec., 40-80 mA, 500 msec long) at intervals of 5 minutes.
(§1) The tested compounds were cumulatively administered.
(§2) Dopamine was used as reference compound.

For assay [2], the target named is dopaminergic receptors D1 (Oryctolagus cuniculus, UniProt G1SML2). The assay can be described thus: D1 activity on the rabbit splenic artery (RSA), isolated artery rings contracted with U46619. As to conditions: cumulative administration, agonistic activity at peak of effect. As for the experimental part: Tests of dopaminergic activity on isolated tissues Evaluation of the D1 activity on the rabbit splenic artery (RSA)
dopaminergic receptors D1, sequence (G1SML2 1-448): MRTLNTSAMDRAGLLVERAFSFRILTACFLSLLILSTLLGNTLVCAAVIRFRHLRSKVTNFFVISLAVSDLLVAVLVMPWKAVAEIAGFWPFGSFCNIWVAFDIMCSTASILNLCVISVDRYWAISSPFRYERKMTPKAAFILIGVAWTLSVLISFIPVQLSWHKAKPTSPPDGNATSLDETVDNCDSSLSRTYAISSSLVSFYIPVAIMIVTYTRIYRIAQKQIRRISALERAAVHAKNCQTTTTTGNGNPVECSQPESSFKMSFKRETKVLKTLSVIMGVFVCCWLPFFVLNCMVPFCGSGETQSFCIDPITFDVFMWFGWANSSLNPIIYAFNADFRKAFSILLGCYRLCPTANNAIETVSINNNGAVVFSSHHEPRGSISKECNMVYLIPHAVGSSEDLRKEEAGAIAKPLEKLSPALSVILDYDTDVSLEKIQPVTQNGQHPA
Artery rings were prepared according to Semeraro et al., Naunyn. Schnied. Arch. […] These were contracted with U46619 (9,11-dideoxy-11α, 9α -epoxy-methanprostaglandine F2 α) at a submaximal concentration of […].
as §1, §2

We go through two compounds from patent publication US6063964A, “5-hydroxymethyl-2-aminotetralins as cardiovascular agents” (Zambon Group S.p.A., priority 1997, dated 2000).

T1 sequence (G1T1Q0 1-443): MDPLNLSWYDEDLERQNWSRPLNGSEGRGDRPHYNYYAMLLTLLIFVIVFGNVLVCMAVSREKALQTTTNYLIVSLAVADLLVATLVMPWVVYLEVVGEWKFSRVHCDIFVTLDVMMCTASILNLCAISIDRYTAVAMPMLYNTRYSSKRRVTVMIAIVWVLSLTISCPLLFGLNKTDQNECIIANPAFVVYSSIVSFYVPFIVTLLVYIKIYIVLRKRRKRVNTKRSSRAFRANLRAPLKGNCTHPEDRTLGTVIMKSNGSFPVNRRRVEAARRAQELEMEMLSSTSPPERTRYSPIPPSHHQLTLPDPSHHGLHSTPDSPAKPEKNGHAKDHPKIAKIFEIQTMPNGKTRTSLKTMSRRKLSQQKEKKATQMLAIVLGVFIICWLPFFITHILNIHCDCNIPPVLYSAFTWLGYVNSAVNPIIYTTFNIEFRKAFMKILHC

As for `CCCN(CCC)[C@H]1CCc2c(ccc(O)c2CO)C1.O=C(O)/C=C\C(=O)O` [Example 6, (S)-N,N-dipropyl-6-hydroxy-5-hydroxymethyl-1,2,3,4-tetrahydro-2-naphthylamine maleate], the EC50 in assay [1] was 10 nM. For the same compound, the “D1 activity (RSA) expressed as pD2, i.e. -logEC50” value in assay [2] is 6.0.

With `NCCc1ccc(O)c(O)c1` [Dopamine, reference compound], the EC50 in assay [1] is 15.8 nM.
